Data from patent US20080118591A1, “Bactericidal Formulations” (priority 2004, published 2008).
Read-outs that look alike come from different tables or passages of the source.

Key:
[1] = Pyrene 1:3 ratio (I373/I384) for micelle formation; type: physicochemical
Description: To 100 μl of each dilution, 5 μl of a pyrene solution (0.4 mM in ethanol) is added. After equilibration, the fluorescence of the solution with an excitation at 335 nm is determined.
To 100 μl of each dilution, 5 μl of a pyrene solution (0.4 mM in ethanol) is added. After equilibration, the fluorescence of the solution with an excitation at 335 nm is determined on an LS-50 Perkin Elmer fluorescence spectrometer.

[2] = system: gram-negative bacteria; experiment: Rapid bactericidal effect of perfume ingredients (example 1, Mueller-Hinton broth, most probable number method); type: cell-based; conditions: for rapid (30 s) bactericidal activity on gram-negative bacteria (class): 30 s contact time, 0.1% or 0.2% (w/v) in Mueller-Hinton broth
Description: A sufficiently rapid bactericidal activity of a perfume ingredient against gram-negative bacteria according to the invention is determined as follows. The perfume ingredient must have a reduction factor of bacterial viability of at least 20-fold when it is tested in a concentration of 0.2% in Mueller Hinton Broth with a contact time of 30 seconds as described below. The perfume ingredient is dissolved in dimethylsulfoxide (DMSO) in a concentration of 4% (w/v). An aliquot (10 μl) of the solution is added to individual wells of microtiter plates.
200 μl of Mueller-Hinton broth containing a bacterial inoculum of 2.5×10^6 cfu (colony forming units) is added. After 30 s contact time, 20 μl of the test solution is removed and added to 180 μl of a neutralising solution (containing 3 g lecithin, 30 g Tween® 80, 5 g sodium thiosulfate, 1 g histidine, 30 g saponin, 8.5 g sodium chloride, 1 g tryptone and 1000 ml water). After 1 min incubation, the sample is serially diluted 1:1 in Micotiter-plates containing 100 μl Mueller-Hinton Broth per well, and then incubated for 24 h at 37° C. The maximal dilution showing bacterial growth is recorded to determine the number of surviving bacteria (so-called most probable number method, which is a well-known microbiological method), and results are compared to control samples without added perfumery chemicals. Reduction in bacterial viability is thus calculated by dividing numbers of bacteria in control samples by the number surviving in the treated samples. […].
Test organisms Escherichia coli (ATCC 10536), Salmonella typhimurium (ATCC 13311) and Pseudomonas aeruginosa (ATCC 15442) are used. For Pseudomonas aeruginosa the test solution contains additionally 0.1% EDTA.
A large number of commercially-available materials including a collection of 900 perfumery chemicals is tested. The materials are dissolved in dimethylsulfoxide (DMSO) in a concentration of 4% (w/v). An aliquot (5 μl or 10 μl) of each solution is added to individual wells of microtiter plates. 200 μl of Mueller-Hinton broth containing a bacterial inoculum of 2.5×10^6 cfu (colony forming units) is added. After 30 s and 60 s contact time, 20 μl of the test solution is removed and added to 180 μl of a neutralising solution (containing 3 g lecithin, 30 g Tween® 80, 5 g sodium thiosulfate, 1 g histidine, 30 g saponin, 8.5 g sodium chloride, 1 g tryptone and 1000 ml water). After 1 min incubation, the samples are serially diluted 1:1 in Micotiter-plates containing 100 μl Mueller-Hinton Broth per well, and then incubated for 24 h at 37° C. The maximal dilution showing bacterial growth is recorded to determine the number of surviving bacteria (so-called most probable number method, which is a well-known microbiological method), and results are compared to control samples without added perfumery chemicals. Reduction in bacterial viability is thus calculated by dividing numbers of bacteria in control samples by the number surviving in the treated samples.

[3] = system: Pseudomonas aeruginosa; experiment: Rapid bactericidal activity of liquid wash formulations; type: cell-based
Description: The above formulations are supplemented with 0.9% (w/v) of the perfume composition A of example 2. A control of each formulation is left un-perfumed. The rapid bactericidal activity of these formulations is then tested as follows: • The products are diluted 1:1 in hard water as defined in the European standard EN 1276. This mimics conditions of use on wet hands or wet surfaces in commonly used water. • 500 μl of the product is mixed with 25 μl of a bacterial inoculum containing 2×10^8 cfu/ml (colony forming units). • The mixture is incubated for 30 seconds at 37° C. • 20 μl of the mixture is removed and added to 180 μl neutralising solution (containing 3 g lecithin, 30 g Tween® 80, 5 g sodium thiosulfate, 1 g histidine, 30 g saponin, 8.5 g sodium chloride, 1 g tryptone and 1000 ml water). • The mixture with neutraliser is incubated for 1 min • Serial dilutions of the mixture with neutralising solution are made, and aliquots of these are added to Petri-dishes and embedded in tryptic soy agar containing 0.5% Tween® 80 to inactivate any residual antibacterial compounds. • Bacterial numbers are counted after 24 h incubation at 37° C. and compared to control samples. • Reduction in bacterial viability is determined as described in example 1
The resulting formulations are tested in a 1:1 dilution for their rapid bactericidal effects after 30 seconds for Pseudomonas aeruginosa.
Formulation IVg is supplemented as indicated in the table below with various different chelating agents instead of EDTA and is tested as described in example 5a. The resulting products are tested with 30 s contact time at a 1:1 dilution for bactericidal effects on P. aeruginosa.

[4] = chelating agent added to formulation instead of EDTA, 1:1, 30 s

**Q.** What does the source list for `CCCCCCCCCCCCOS(=O)(=O)[O-].[Na+]` [Sodium dodecylsulfate]?
**A.** ratio (I373)/(I384) (pyrene 1:3 ratio) ([1]; CONC 0.01% in water): 1.11; ratio (I373)/(I384) (pyrene 1:3 ratio) ([1]; CONC 0.02% in water): 1.12; ratio (I373)/(I384) (pyrene 1:3 ratio) ([1]; CONC 0.04% in water): 1.08; ratio (I373)/(I384) (pyrene 1:3 ratio) ([1]; CONC 0.08% in water): 0.92; ratio (I373)/(I384) (pyrene 1:3 ratio) ([1]; CONC 0.16% in water): 0.78; ratio (I373)/(I384) (pyrene 1:3 ratio) ([1]; CONC 0.31% in water): 0.79; ratio (I373)/(I384) (pyrene 1:3 ratio) ([1]; CONC 0.63% in water): 0.75; ratio (I373)/(I384) (pyrene 1:3 ratio) ([1]; CONC 1.25% in water): 0.74

**Q.** For `CCC(=O)OC/C=C(\C)CCC=C(C)C` [Geranyl-propionate], which “antibacterial effect in formulations according to the present invention (in words)” value (from here on “antibacterial effect”) [2] is on record?
**A.** do not provide a sufficient antibacterial effect

**Q.** What about the “rapid (30 s) bactericidal activity on gram-negative bacteria (class)” value (shortened to “rapid (30 s) bactericidal activity”) [2] of the same molecule?
**A.** without activity

**Q.** For `CC(O)(P(=O)(O)O)P(=O)(O)O` [1-hydroxyethylidene-1,1-phosphonic acid], which “effect of the chelating agent on rapid activity of the formulation against Pseudomonas aeruginosa (in words)” value (from here on “effect of the chelating agent”) [3] is on record?
**A.** not able to provide this improved activity

**Q.** For Cocoamidopropylbetaine, which “ratio (I373)/(I384) (pyrene 1:3 ratio)” value ([1]; CONC 0.01% in water) is on record?
**A.** 1.19

**Q.** And the “ratio (I373)/(I384) (pyrene 1:3 ratio)” value ([1]; CONC 0.02% in water)?
**A.** 1.02

**Q.** What about the “ratio (I373)/(I384) (pyrene 1:3 ratio)” value ([1]; CONC 0.04% in water) of the same molecule?
**A.** 0.87

**Q.** And the “ratio (I373)/(I384) (pyrene 1:3 ratio)” value ([1]; CONC 0.08% in water)?
**A.** 0.80

**Q.** What about the “ratio (I373)/(I384) (pyrene 1:3 ratio)” value ([1]; CONC 0.16% in water) of the same molecule?
**A.** 0.80

**Q.** And the “ratio (I373)/(I384) (pyrene 1:3 ratio)” value ([1]; CONC 0.31% in water)?
**A.** 0.78

**Q.** What about the “ratio (I373)/(I384) (pyrene 1:3 ratio)” value ([1]; CONC 0.63% in water) of the same molecule?
**A.** 0.79

**Q.** What about the “ratio (I373)/(I384) (pyrene 1:3 ratio)” value ([1]; CONC 1.25% in water) of the same molecule?
**A.** 0.78

**Q.** With `O=C(O)C[C@H](NCCN[C@@H](CC(=O)O)C(=O)O)C(=O)O` [EDDS, ethylendiaminedisuccinic acid] as the molecule, how does the “effect of the chelating agent” value [3, 4] read?
**A.** not able to provide this improved activity

**Q.** With Diisopropyl-sulfosuccinate as the molecule, how does the “ratio (I373)/(I384) (pyrene 1:3 ratio)” value ([1]; CONC 0.01% in water) read?
**A.** 1.21

**Q.** And the “ratio (I373)/(I384) (pyrene 1:3 ratio)” value ([1]; CONC 0.02% in water)?
**A.** 1.21

**Q.** What about the “ratio (I373)/(I384) (pyrene 1:3 ratio)” value ([1]; CONC 0.04% in water) of the same molecule?
**A.** 1.20

**Q.** What about the “ratio (I373)/(I384) (pyrene 1:3 ratio)” value ([1]; CONC 0.08% in water) of the same molecule?
**A.** 1.36

**Q.** And the “ratio (I373)/(I384) (pyrene 1:3 ratio)” value ([1]; CONC 0.16% in water)?
**A.** 1.99

**Q.** And the “ratio (I373)/(I384) (pyrene 1:3 ratio)” value ([1]; CONC 0.31% in water)?
**A.** 1.65

**Q.** What about the “ratio (I373)/(I384) (pyrene 1:3 ratio)” value ([1]; CONC 0.63% in water) of the same molecule?
**A.** 1.48

**Q.** What about the “ratio (I373)/(I384) (pyrene 1:3 ratio)” value ([1]; CONC 1.25% in water) of the same molecule?
**A.** 1.39

**Q.** Which “effect of the chelating agent” value [3, 4] does the source give for `O=C(O)CC(NC(CC(=O)O)C(=O)O)C(=O)O` (stereo not drawn) [IDS, iminodisuccinic acid] here?
**A.** not able to provide this improved activity

**Q.** Which “effect of the chelating agent” value [3, 4] does the source give for `O=P(O)(O)CN(CP(=O)(O)O)CP(=O)(O)O` [Aminotri (methylene-phosponic acid)] here?
**A.** not able to provide this improved activity

**Q.** Which “antibacterial effect” value [2] does the source give for `C=CC(C)(CCC=C(C)C)OC=O` (stereo not drawn) [linalyl-formiate] here?
**A.** do not provide a sufficient antibacterial effect

**Q.** And the “rapid (30 s) bactericidal activity” value [2]?
**A.** without activity

**Q.** For Sodium xylene sulfonate, which “ratio (I373)/(I384) (pyrene 1:3 ratio)” value ([1]; CONC 0.01% in water) is on record?
**A.** 1.37

**Q.** What about the “ratio (I373)/(I384) (pyrene 1:3 ratio)” value ([1]; CONC 0.02% in water) of the same molecule?
**A.** 1.46

**Q.** And the “ratio (I373)/(I384) (pyrene 1:3 ratio)” value ([1]; CONC 0.04% in water)?
**A.** 2.84

**Q.** What about the “ratio (I373)/(I384) (pyrene 1:3 ratio)” value ([1]; CONC 0.08% in water) of the same molecule?
**A.** 1.62

**Q.** What about the “ratio (I373)/(I384) (pyrene 1:3 ratio)” value ([1]; CONC 0.16% in water) of the same molecule?
**A.** 1.49

**Q.** What about the “ratio (I373)/(I384) (pyrene 1:3 ratio)” value ([1]; CONC 0.31% in water) of the same molecule?
**A.** 1.43

**Q.** What about the “ratio (I373)/(I384) (pyrene 1:3 ratio)” value ([1]; CONC 0.63% in water) of the same molecule?
**A.** 1.41

**Q.** And the “ratio (I373)/(I384) (pyrene 1:3 ratio)” value ([1]; CONC 1.25% in water)?
**A.** 1.04

**Q.** For `O=C(O)CN(CC(=O)O)CC(=O)O` [NTA, nitrilotriacetic acid], which “effect of the chelating agent” value [3, 4] is on record?
**A.** not able to provide this improved activity

**Q.** With `O=C(O)CN(CC(=O)O)[C@@H]1CCCC[C@H]1N(CC(=O)O)CC(=O)O` (relative stereo) [CDTA, trans 1,2-diaminocyclohexane-N,N,N′N′-tetraacetic acid] as the molecule, how does the “effect of the chelating agent” value [3] read?
**A.** further improves the effectiveness

**Q.** Which “effect of the chelating agent” value [3, 4] does the source give for `O=C(O)CN(CCN(CC(=O)O)CC(=O)O)CCN(CC(=O)O)CC(=O)O` [DTPA, di-ethylen-triamine-penta-acetate] here?
**A.** not able to provide this improved activity

**Q.** What does the source list for `C=CC(C)(CCC=C(C)C)OC(=O)CC` (stereo not drawn) [linalyl-propionate]?
**A.** antibacterial effect in formulations according to the present invention (in words) [2]: do not provide a sufficient antibacterial effect; rapid (30 s) bactericidal activity on gram-negative bacteria (class) [2]: without activity

**Q.** Which “antibacterial effect” value [2] does the source give for `CC(C)=CCC/C(C)=C\COC=O` [neryl-formiate] here?
**A.** do not provide a sufficient antibacterial effect

**Q.** What about the “rapid (30 s) bactericidal activity” value [2] of the same molecule?
**A.** without activity

**Q.** Which “antibacterial effect” value [2] does the source give for `CCC(=O)OCCC(C)CCC=C(C)C` (stereo not drawn) [citronellyl-propionate] here?
**A.** do not provide a sufficient antibacterial effect

**Q.** And the “rapid (30 s) bactericidal activity” value [2]?
**A.** without activity

**Q.** Which results are given for `CC(=O)OCCC(C)CCC=C(C)C` (stereo not drawn) [citronellyl-actetate]?
**A.** antibacterial effect in formulations according to the present invention (in words) [2]: do not provide a sufficient antibacterial effect; rapid (30 s) bactericidal activity on gram-negative bacteria (class) [2]: without activity

**Q.** For `CC(C)=CCC/C(C)=C/COC=O` [Geranyl-formiate], which “antibacterial effect” value [2] is on record?
**A.** do not provide a sufficient antibacterial effect

**Q.** And the “rapid (30 s) bactericidal activity” value [2]?
**A.** without activity

**Q.** What does the source list for `CCC(=O)OC/C=C(/C)CCC=C(C)C` [neryl-propionate]?
**A.** antibacterial effect in formulations according to the present invention (in words) [2]: do not provide a sufficient antibacterial effect; rapid (30 s) bactericidal activity on gram-negative bacteria (class) [2]: without activity

**Q.** What does the source list for `CC(C)=CCCC(C)CCOC=O` (stereo not drawn) [citronellyl-formiate]?
**A.** antibacterial effect in formulations according to the present invention (in words) [2]: do not provide a sufficient antibacterial effect; rapid (30 s) bactericidal activity on gram-negative bacteria (class) [2]: without activity
